These results are taken from patent US20240226107A1, “UBIQUITIN-SPECIFIC PROTEASE 1 (USP1) INHIBITOR” (SIMCERE ZAIMING PHARMACEUTICAL CO., LTD., priority 2021, published 2024).

A short description of series [1]: Solubility (PBS pH 7.4) of compounds from DMSO solution. Format: physicochemical. Conditions: aqueous buffer, kinetic from dmso stock, 10 mM DMSO solution into PBS pH 7.4, 25° C., read-out: Calculated solubility. Here is the method:
The solubility (PBS pH 7.4) of a compound to be tested was determined by LC/MS/MS. 6 μL of 10 mM DMSO solution of the compound to be tested was mixed with 194 μL of DMSO to prepare 300 μM compound solution. In 490 μL of water and acetonitrile (1:1) containing an internal standard, 5 μL of the solution and 5 μL of PBS pH 7.4 solution were mixed to prepare 3 μM standard concentration solution of the sample to be tested. The dilution factor of the standard solution can be adjusted according to the strength of response signals in LC/MS.
To 485 μL of PBS pH 7.4 solution, 15 μL of 10 mM DMSO solution of the compound to be tested was added. […] After shaking, the stir bar was removed, and the sample was transferred to a filter plate and filtered using a vacuum manifold. In 490 μL of water and acetonitrile (1:1) containing an internal standard, 5 μL of filtrate and 5 μL of PBS pH 7.4 solution were mixed to prepare a solution to be tested. The dilution factor can be adjusted according to the solubility value and the strength of response signals in LC/MS.
The resulting samples were determined by LC/MS/MS. The sample solubility was calculated from peak areas of the solution of the compound to be tested and the standard concentration solution, according to the following equation:
[formula] • [Sample] is the solubility of the sample to be tested; • Area ratiosample is the ratio of the peak area of sample in the sample to be tested to the peak area of the internal standard; • INJ VOL STD is the injection volume of the standard concentration solution; • DFsample is the dilution factor of the solution of the sample to be tested; • [STD] is the concentration of the standard concentration solution; • INJ VOLsample is the injection volume of the solution of the sample to be tested; and • Area ratio STD is the ratio of the peak area of sample in the standard concentration solution to the peak area of the internal standard.

In series [2] the test system is MDA-MB-436 cells.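 Also: MDA-MB-436 proliferation over 7 days with compound, viability read as ATP luminescence (CellTiter-Glo), inhibition relative to DMSO-only wells, day 0 signal as background, GI50 from four-parameter fit.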
Protocol: Assay based on CellTiter-Glo luminescent cell viability assay system.
The assay kit (CellTiter-Glo® Luminescent Cell Viability Assay) was purchased from Promega, with Cat. No. of G7573, and was stored at −30° C. after subpackage. The kit is a homogeneous assay method for assaying the number of viable cells in a culture based on quantitative determination of ATP. The kit produces a luminescence signal proportional to the amount of ATP present, and the amount of ATP is directly proportional to the number of cells in the culture.
The cultured cells were trypsinized, collected and centrifuged, then resuspended at an adjusted concentration in a culture solution (DMEM+10% FBS), and cultured overnight on a 384-well plate (400 cells/20 μl/well) in a cell incubator with 5% CO2 at 37° C. An ECHO instrument was used to added the compound and pure DMSO onto each well of the 384-well plate. The total volume of the compound and DMSO is 100 nL, and the instrument obtains gradient diluted sample concentrations through different ratios. To each well, 30 μL of culture solution was added, and after mixing by centrifugal oscillation and re-centrifugation, the cells were cultured in a cell incubator for 7 days (one column of cells was subjected to CTG assay on the day of dosing). After day 7, 25 μL of CTG assay solution was added to each well, and after mixing by centrifugal oscillation and re-centrifugation, the cells were placed at room temperature away from light for 10 min. In terms of chemiluminescence signals, an Envision plate reader (PerkinElmer, emission wavelength: 400-700 nm) was used to measure a signal in each well. The chemiluminescence value [RLU]cpd on day 7 was obtained for the treatment group, the chemiluminescence value [RLU]cell on day 7 was obtained for the non-treatment group (given DMSO only), and the chemiluminescence value [RLU]background on day 0 was obtained for the parallel non-treatment group (given DMSO only) by CTG assay on day 0. […] In the following equation, x represents the concentration of the compound in a logarithmic form; and F(x) represents an effect value (inhibition rate of proliferation at the concentration): F(x)=(A+((B−A)/(1+((C/x)^D)))). A, B, C, and D are four parameters.
Series [3] addresses USP1 (Recombinant Human His6-USP1/His6-UAF1 Complex Protein) (Homo sapiens (Human), UniProt O94782). Put plainly: In vitro activity assay for USP1 (Ub-CHOP2-Reporter deubiquitination assay). Format: biochemical. Conditions: 0.5 h incubation at room temperature, read-out: In vitro inhibitory activity of USP1 IC50. Here is the method:
The assay kit (Ub-CHOP2-Reporter Deubiquitination Assay Kit) was purchased from Lifesensors, with Cat. No. of PR1101. The assay kit was subpackaged and stored at −80° C.
Each compound to be tested was dissolved with DMSO to 10 mM. The compound and pure DMSO (with a total volume of 50 nL) were loaded to each well of the 384-well plate by using an ECHO instrument to obtain gradient-diluted sample concentrations at different ratios. The enzyme was diluted with a freshly prepared reaction solution (20 mM Tris-HCl (pH 8.0), 2 mM CaCl2, 2 mM β-mercaptoethanol, 0.05% CHAPS, and ddH2O). To each well, 5 μL of diluted enzyme reaction solution was added, then the plate was centrifuged and oscillated to mix the enzyme and the compound, and the mixture was centrifuged again and placed on ice. The kit reporter system and the substrate were diluted with the reaction solution, then 5 μL of diluted liquid was added to each well, and mixed by centrifugation. The mixture was incubated at room temperature for 0.5 h. […] The inhibitory activity (IC50 values) of the compound on enzyme activity was calculated by using a four-parameter Logistic Model. […] A, B, C, and D are four parameters.

pIC50: −log10 of the molar value. ≈ marks a conversion by molar mass, not a printed value.

Chain of USP1 (Recombinant Human His6-USP1/His6-UAF1 Complex Protein) (O94782 whole entry): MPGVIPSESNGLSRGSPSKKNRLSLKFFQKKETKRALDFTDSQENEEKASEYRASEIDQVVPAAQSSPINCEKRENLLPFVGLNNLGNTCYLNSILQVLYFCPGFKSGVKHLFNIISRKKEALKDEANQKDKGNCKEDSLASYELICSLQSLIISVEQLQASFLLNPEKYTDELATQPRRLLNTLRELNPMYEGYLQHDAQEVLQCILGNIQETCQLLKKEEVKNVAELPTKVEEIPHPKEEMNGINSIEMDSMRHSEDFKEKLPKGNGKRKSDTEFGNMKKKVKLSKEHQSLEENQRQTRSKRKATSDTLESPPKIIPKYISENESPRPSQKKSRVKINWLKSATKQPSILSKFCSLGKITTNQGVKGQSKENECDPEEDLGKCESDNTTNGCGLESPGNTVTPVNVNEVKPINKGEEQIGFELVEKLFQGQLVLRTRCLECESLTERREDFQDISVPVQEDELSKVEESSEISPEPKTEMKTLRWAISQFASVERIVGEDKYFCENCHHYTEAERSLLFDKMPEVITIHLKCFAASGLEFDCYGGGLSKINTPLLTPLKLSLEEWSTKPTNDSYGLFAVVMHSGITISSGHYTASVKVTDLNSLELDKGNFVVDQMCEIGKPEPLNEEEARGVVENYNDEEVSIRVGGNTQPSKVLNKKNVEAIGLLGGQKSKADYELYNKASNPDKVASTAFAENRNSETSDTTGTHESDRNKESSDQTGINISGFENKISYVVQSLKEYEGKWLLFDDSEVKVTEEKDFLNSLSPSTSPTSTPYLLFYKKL
Chain of USP1 (Recombinant Human His6-USP1/His6-UAF1 Complex Protein) (Q8TAF3 whole entry partner): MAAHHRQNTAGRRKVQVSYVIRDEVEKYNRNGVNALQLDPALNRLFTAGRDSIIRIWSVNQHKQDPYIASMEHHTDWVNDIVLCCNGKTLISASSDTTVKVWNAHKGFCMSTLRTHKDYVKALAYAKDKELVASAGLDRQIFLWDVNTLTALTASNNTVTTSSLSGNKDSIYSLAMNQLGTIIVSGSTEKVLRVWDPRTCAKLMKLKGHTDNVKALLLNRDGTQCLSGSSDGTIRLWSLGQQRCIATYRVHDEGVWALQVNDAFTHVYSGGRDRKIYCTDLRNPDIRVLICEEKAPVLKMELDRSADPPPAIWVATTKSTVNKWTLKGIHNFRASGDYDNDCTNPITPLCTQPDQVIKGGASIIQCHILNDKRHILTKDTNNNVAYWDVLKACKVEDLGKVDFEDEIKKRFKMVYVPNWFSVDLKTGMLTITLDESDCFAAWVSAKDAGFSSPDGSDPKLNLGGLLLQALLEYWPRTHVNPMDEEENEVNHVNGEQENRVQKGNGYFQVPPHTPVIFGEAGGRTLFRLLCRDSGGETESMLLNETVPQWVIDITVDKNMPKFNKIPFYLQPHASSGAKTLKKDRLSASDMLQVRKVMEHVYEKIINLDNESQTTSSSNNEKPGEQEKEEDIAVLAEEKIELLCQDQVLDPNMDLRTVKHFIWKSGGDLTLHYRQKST

The solubility is how much of the substance goes into solution per volume. As usually defined, the GI50 is the concentration that inhibits growth by half. The low end stands for more potent growth inhibition, the high end for less potent growth inhibition. For `COc1ncnc(C2CC2)c1-c1ncc2c(n1)N(Cc1ccc(-c3nc(C(F)(F)F)cn3C)cn1)CCO2` [Compound 16], the solubility at 2 h in series [1] is 284 µM (≈ 149 µg/mL). The same compound came in with a GI50 in series [2] of 1080 nM.

The pIC50 is the IC50 on a negative log10 scale, so that one unit is a factor of ten. As to `COc1ncnc(C2CC2)c1-c1ncc2c(n1)N(Cc1ccc(-c3nc(C(F)(F)F)cn3C)cc1)CC(=O)N2C1CC1` [Compound 24, 2-(4-cyclopropyl-6-methoxypyrimidin-5-yl)-5-cyclopropyl-8-(4-(1-methyl-4-(trifluoromethyl)-1H-imidazol-2-yl)benzyl)-7,8-dihydropteridin-6(5H)-one], in series [1], the solubility at 2 h was 228 µM (≈ 131 µg/mL). The pIC50 in series [3] is 7.63. The GI50 in series [2] turned out to be 86.2 nM.

For `COc1ncnc(C2CC2)c1-c1ncc2c(n1)N(CC1CCN(c3nc(C(F)(F)F)cn3C)CC1)CCO2` [Compound 30, 2-(4-cyclopropyl-6-methoxypyrimidin-5-yl)-8-((1-(1-methyl-4-(trifluoromethyl)-1H-imidazol-2-yl)piperidin-4-yl)methyl)-7,8-dihydro-6H-pyrimido[5,4-b][1,4]oxazine], the solubility at 2 h in series [1] was 225 µM (≈ 119 µg/mL). In addition, the pIC50 in series [3] is 7.35. The compound further gave a GI50 in series [2] of 161 nM.

Turning to `CCn1cc(C(F)(F)F)nc1-c1ccc(CN2CC(=O)N(C)c3cnc(-c4c(OC)ncnc4C4CC4)nc32)cc1` [Compound 40, 2-(4-cyclopropyl-6-methoxypyrimidin-5-yl)-5-methyl-8-(4-(1-ethyl-4-(trifluoromethyl)-1H-imidazol-2-yl)benzyl)-7,8-dihydropteridin-6(5H)-one], the solubility at 2 h in series [1] was 122 µM (≈ 68.9 µg/mL). Moreover, the pIC50 in series [3] was 7.57. This compound also returned a GI50 in series [2] of 22.6 nM.

Take `COc1ncnc(C2CC2)c1-c1ncc2c(n1)N(Cc1ccc(-c3nc(C(F)(F)F)cn3C(C)C)cc1)CC(=O)N2C` [Compound 41, 2-(4-cyclopropyl-6-methoxypyrimidin-5-yl)-5-methyl-8-(4-(1-isopropyl-4-(trifluoromethyl)-1H-imidazol-2-yl)benzyl)-7,8-dihydropteridin-6(5H)-one]: in series [1], the solubility at 2 h is 88 µM (≈ 50.9 µg/mL). Further, the negative-log IC50 (pIC50) in series [3] is 7.72. For the same compound, the GI50 in series [2] was determined as 28.4 nM.

For `CCN1C(=O)CN(Cc2ccc3c(c2)CCCn2cc(C(F)(F)F)nc2-3)c2nc(-c3c(OC)ncnc3C3CC3)ncc21` [Compound 46, 2-(4-cyclopropyl-6-methoxypyrimidin-5-yl)-5-ethyl-8-((2-(trifluoromethyl)-6,7-dihydro-5H-benzo[c]imidazo[1,2-a]azepin-9-yl)methyl)-7,8-dihydropteridin-6(5H)-one], the solubility at 2 h in series [1] was 50 µM (≈ 29.5 µg/mL).

On to `COc1ncnc(C2CC2)c1-c1ncc2c(n1)N(Cc1cc(F)c(-c3nc(C(F)(F)F)cn3C)c(F)c1)CC(=O)N2C` [Compound 66, 2-(4-cyclopropyl-6-methoxypyrimidin-5-yl)-5-methyl-8-(3,5-difluoro-4-(1-methyl-4-(trifluoromethyl)-1H-imidazol-2-yl)benzyl)-7,8-dihydropteridin-6(5H)-one], for which the solubility at 2 h in series [1] was 115 µM (≈ 67.5 µg/mL). In addition, the pIC50 in series [3] is 7.57. This compound also returned a GI50 in series [2] of 29.6 nM.

Take `COc1ncnc(C2CC2)c1-c1ncc2c(n1)N(Cc1ccc(-c3nc(C(F)(F)F)cn3C)c(F)c1)C(C)C(=O)N2C` (stereo not shown) [Compound 70, 2-(4-cyclopropyl-6-methoxypyrimidin-5-yl)-8-(3-fluoro-4-(1-methyl-4-(trifluoromethyl)-1H-imidazol-2-yl)benzyl)-5,7-dimethyl-7,8-dihydropteridin-6(5H)-one]: in series [1], the solubility at 2 h is 98 µM (≈ 57.1 µg/mL). Further, the pIC50 in series [3] was 7.42. The compound also showed a GI50 in series [2] of 93.1 nM.

In the case of `CCn1cc(C(F)(F)F)nc1-c1ccc(CN2CC(=O)N(C3CC3)c3cnc(-c4c(OC)ncnc4C4CC4)nc32)cc1F` [Compound 73, 2-(4-cyclopropyl-6-methoxypyrimidin-5-yl)-8-(3-fluoro-4-(1-ethyl-4-(trifluoromethyl)-1H-imidazol-2-yl)benzyl)-5-cyclopropyl-7,8-dihydropteridin-6(5H)-one], the negative logarithm of the IC50 (pIC50) in series [3] was 7.34. For the same compound, it took 48 nM to inhibit growth in series [2] by half (GI50).

As for `COc1ncnc(C2CC2)c1-c1ncc2c(n1)N(Cc1ccc(-c3nc(C(F)(F)F)cn3C3CC3)c(F)c1)CC(=O)N2C1CC1` [Compound 77, 2-(4-cyclopropyl-6-methoxypyrimidin-5-yl)-8-(3-fluoro-4-(1-cyclopropyl-4-(trifluoromethyl)-1H-imidazol-2-yl)benzyl)-5-cyclopropyl-7,8-dihydropteridin-6(5H)-one], the negative logarithm of the IC50 (pIC50) in series [3] was 7.74. In addition, the GI50 in series [2] worked out at 48.7 nM.

Consider `COc1ncnc(C2CC2)c1-c1ncc2c(n1)N(Cc1ccc(-c3nc(C(F)(F)F)cn3C)cc1)CC(=O)N2C(C)C` [Compound 78, 2-(4-cyclopropyl-6-methoxypyrimidin-5-yl)-8-(4-(1-methyl-4-(trifluoromethyl)-1H-imidazol-2-yl)benzyl)-5-isopropyl-7,8-dihydropteridin-6(5H)-one], for which, in series [3], the pIC50 was 7.02. The compound also had a GI50 in series [2] of 53.1 nM.

With `COc1ncnc(C2CC2)c1-c1ncc2c(n1)N(Cc1ccc3c(c1)C(C)CCn1cc(C(F)(F)F)nc1-3)CC(=O)N2C` (stereo not shown) [Compound 79, 2-(4-cyclopropyl-6-methoxypyrimidin-5-yl)-5-methyl-8-((7-methyl-2-(trifluoromethyl)-6,7-dihydro-5H-benzo[c]imidazo[1,2-a]azepin-9-yl)methyl)-7,8-dihydropteridin-6(5H)-one], in series [3], the pIC50 was 7.02. The compound also showed a GI50 in series [2] of 80.2 nM.

`COc1ncnc(C2CC2)c1-c1ncc2c(n1)N(Cc1ccc(-c3nc(C(F)(F)F)cn3C)cc1)C(=O)OC2` [Compound 80, 7-(4-cyclopropyl-6-methoxypyrimidin-5-yl)-1-(4-(1-methyl-4-(trifluoromethyl)-1H-imidazol-2-yl)benzyl)-1,4-dihydro-2H-pyrimido[4,5-d][1,3]oxazin-2-one]: in series [1], the solubility at 2 h was 72 µM (≈ 38.7 µg/mL). For the same compound, in series [3], the negative-log IC50 (pIC50) is 7.93.

Take `COc1ncnc(C2CC2)c1-c1ncc2c(n1)N(Cc1ccc(-c3nc(C(F)(F)F)cn3C)cc1)C(=O)OC2C` (stereo not shown) [Compound 81, 7-(4-cyclopropyl-6-methoxypyrimidin-5-yl)-4-methyl-1-(4-(1-methyl-4-(trifluoromethyl)-1H-imidazol-2-yl)benzyl)-1,4-dihydro-2H-pyrimido[4,5-d][1,3]oxazin-2-one]: the pIC50 in series [3] was 7.57. This compound also gave a GI50 in series [2] of 69.3 nM.

For `COc1ncnc(C2CC2)c1-c1ncc2c(n1)N(Cc1ccc3c(c1)CCCn1cc(C(F)(F)F)nc1-3)CC(=S)N2C` [Compound 82, 2-(4-cyclopropyl-6-methoxypyrimidin-5-yl)-5-methyl-8-((2-(trifluoromethyl)-6,7-dihydro-5H-benzo[c]imidazo[1,2-a]azepin-9-yl)methyl)-7,8-dihydropteridine-6(5H)-thione], in series [3], the negative-log IC50 (pIC50) is 7.23. In series [2], this compound gave a GI50 of 35.8 nM.

Regarding `COc1ncnc(C2CC2)c1-c1ncc2c(n1)N(Cc1ccc(-c3nc(C(F)(F)F)cn3C)c(F)c1)CC(=S)N2C` [Compound 83, 2-(4-cyclopropyl-6-methoxypyrimidin-5-yl)-8-(3-fluoro-4-(1-methyl-4-(trifluoromethyl)-1H-imidazol-2-yl)benzyl)-5-methyl-7,8-dihydropteridine-6(5H)-thione], the negative logarithm of the IC50 (pIC50) in series [3] is 7.31. Moreover, it took 23 nM to inhibit growth in series [2] by half (GI50).
